pIC50: −log10 of the molar value.
What was measured:
[1] = molecular target: T1, catalytic domain of human Bub1 (amino acids 704-1085) (Homo sapiens, UniProt O43683); assay: Bub1 kinase assay (TR-FRET); format: biochemical; settings: 10 μM ATP, avg, read-out: Bub1 avg (IC50 [mol/l])
T1 construct: catalytic domain of human Bub1 (amino acids 704-1085); His6 (N); made in house; host or cells: insect cells (Hi5)
Source text: Bub1-inhibitory activity of compounds of the present invention was quantified employing the Bub1 TR-FRET assay as described in the following paragraphs.
N-terminally His6-tagged recombinant catalytic domain of human Bub1 (amino acids 704-1085), expressed in insect cells (Hi5) and purified by Ni-NTA affinity chromatography and subsequent size exclusion chromatography, was used as enzyme. As substrate for the kinase reaction the biotinylated peptide biotin-Ahx-VLLPKKSFAEPG (C-terminus in amid form) was used which can be purchased e.g. form the company Biosyntan (Berlin, Germany).
For the assay 50 nl of a 100fold concentrated solution of the test compound in DMSO was pipetted into a black low volume 384well microtiter plate (Greiner Bio-One, Frickenhausen, Germany), 2 μl of a solution of Bub1 in aqueous assay buffer [50 mM Tris/HCl pH 7.5, 10 mM magnesium chloride (MgCl2), 200 mM potassium chloride (KCl), 1.0 mM dithiothreitol (DTT), 0.1 mM sodium ortho-vanadate, 1% (v/v) glycerol, 0.01% (w/v) bovine serum albumine (BSA), 0.005% (v/v) Trition X-100 (Sigma), 1× Complete EDTA-free protease inhibitor mixture (Roche)] were added and the mixture was incubated for 15 min at 22° C. to allow pre-binding of the test compounds to the enzyme before the start of the kinase reaction. Then the kinase reaction was started by the addition of 3 μl of a solution of adenosine-tri-phosphate (ATP, 16.7 μM=>final conc. in the 5 μl assay volume is 10 μM) and substrate (1.67 μM=>final conc. in the 5 μl assay volume is 1 μM) in assay buffer and the resulting mixture was incubated for a reaction time of 60 min at 22° C. The concentration of Bub1 was adjusted depending of the activity of the enzyme lot and was chosen appropriate to have the assay in the linear range, typical concentrations were in the range of 200 ng/ml. The reaction was stopped by the addition of 5 μl of a solution of TR-FRET detection reagents (0.2 μM streptavidine-XL665 [Cisbio Bioassays, Codolet, France] and 1 nM anti-phosho-Serine antibody [Merck Millipore, cat. #35-001] and 0.4 nM LANCE EU-W1024 labeled anti-mouse IgG antibody [Perkin-Elmer, product no. AD0077, as an alternative a Terbium-cryptate-labeled anti-mouse IgG antibody from Cisbio Bioassays can be used]) in an aqueous EDTA-solution (50 mM EDTA, 0.2% (w/v) bovine serum albumin in 100 mM HEPES pH 7.5).
(§1) The resulting mixture was incubated 1 h at 22° C. to allow the formation of complex between the phosphorylated biotinylated peptide and the detection reagents. Subsequently the amount of phosphorylated substrate was evaluated by measurement of the resonance energy transfer from the Eu-chelate to the streptavidine-XL. Therefore, the fluorescence emissions at 620 nm and 665 nm after excitation at 350 nm was measured in a TR-FRET reader, e.g. a Rubystar or Pherastar (both from BMG Labtechnologies, Offenburg, Germany) or a Viewlux (Perkin-Elmer). The ratio of the emissions at 665 nm and at […] was taken as the measure for the amount of phosphorylated substrate. The data were normalised (enzyme reaction without inhibitor=0% inhibition, all other assay components but no enzyme=100% inhibition).

[2] = molecular target: T2, CDK2/CycE (Homo sapiens, UniProt P24941); assay: CDK2/CycE kinase assay (TR-FRET); format: biochemical; settings: avg, read-out: CDK2 avg (IC50 [mol/l])
T2 construct: GST; purchased ProQinase GmbH (Freiburg, Germany); host or cells: insect cells (Sf9)
Source text: CDK2/CycE -inhibitory activity of compounds of the present invention was quantified employing the CDK2/CycE TR-FRET assay as described in the following paragraphs.
Recombinant fusion proteins of GST and human CDK2 and of GST and human CycE, expressed in insect cells (Sf9) and purified by Glutathion-Sepharose affinity chromatography, were purchased from ProQinase GmbH (Freiburg, Germany). As substrate for the kinase reaction biotinylated peptide biotin-Ttds-YISPLKSPYKISEG (C-terminus in amid form) was used which can be purchased e.g. form the company JERINI peptide technologies (Berlin, Germany).
For the assay 50 nl of a 100fold concentrated solution of the test compound in DMSO was pipetted into a black low volume 384we11 microtiter plate (Greiner Bio-One, Frickenhausen, Germany), 2 μl of a solution of CDK2/CycE in aqueous assay buffer [50 mM Tris/HCl pH 8.0, 10 mM MgCl2, 1.0 mM dithiothreitol, 0.1 mM sodium ortho-vanadate, 0.01% (v/v) Nonidet-P40 (Sigma)] were added and the mixture was incubated for 15 min at 22° C. to allow pre-binding of the test compounds to the enzyme before the start of the kinase reaction. Then the kinase reaction was started by the addition of 3 μl of a solution of adenosine-tri-phosphate (ATP, 16.7 μM=>final conc. in the 5 μl assay volume is 10 μM) and substrate (1.25 μM=>final conc. in the 5 μl assay volume is 0.75 μM) in assay buffer and the resulting mixture was incubated for a reaction time of 25 min at 22° C. The concentration of CDK2/CycE was adjusted depending of the activity of the enzyme lot and was chosen appropriate to have the assay in the linear range, typical concentrations were in the range of 130 ng/ml. The reaction was stopped by the addition of 5 μl of a solution of TR-FRET detection reagents (0.2 μM streptavidine-XL665 [Cisbio Bioassays, Codolet, France] and 1 nM anti-RB(pSer807/pSer811)-antibody from BD Pharmingen [#558389] and 1.2 nM LANCE EU-W1024 labeled anti-mouse IgG antibody [Perkin-Elmer, product no. AD0077, as an alternative a Terbium-cryptate-labeled anti-mouse IgG antibody from Cisbio Bioassays can be used]) in an aqueous EDTA-solution (100 mM EDTA, 0.2% (w/v) bovine serum albumin in 100 mM HEPES/NaOH pH 7.0).
as §1, with “(BMG” for “or Pherastar (both from BMG”

T1 sequence (O43683 704-1085): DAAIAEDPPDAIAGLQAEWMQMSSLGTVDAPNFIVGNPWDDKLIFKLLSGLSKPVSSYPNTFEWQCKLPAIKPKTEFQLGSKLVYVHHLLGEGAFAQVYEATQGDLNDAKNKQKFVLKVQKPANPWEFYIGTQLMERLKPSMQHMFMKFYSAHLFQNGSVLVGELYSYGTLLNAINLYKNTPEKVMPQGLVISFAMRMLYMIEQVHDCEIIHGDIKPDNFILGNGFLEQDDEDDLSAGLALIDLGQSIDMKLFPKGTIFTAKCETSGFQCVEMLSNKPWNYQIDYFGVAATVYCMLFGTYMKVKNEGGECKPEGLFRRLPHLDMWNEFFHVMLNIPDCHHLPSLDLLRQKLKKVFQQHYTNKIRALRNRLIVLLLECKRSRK

Compound	pIC50 [1]	pIC50 [2]
Cc1nsc(Nc2cnc3ccccc3n2)c1C(=O)Nc1cccc(C(=O)NCC(=O)O)c1 [Example 99, N-[3-({[3-Methyl-5-(quinoxalin-2-ylamino)-1,2-thiazol-4-yl]carbonyl}amino)benzoy]-glycine]	5.57	≤ 4.70
COC(=O)CNC(=O)c1cccc(NC(=O)c2c(C)nsc2Nc2cnc3ccccc3n2)c1 [Example 100, Methyl N-[3-({[3-methyl-5-(quinoxalin-2-ylamino)-1,2-thiazol-4-yl]carbonyl}amino)-benzoyl]glycinate]	5.05	≤ 4.70
Cc1nsc(Nc2cnc3ccccc3n2)c1C(=O)Nc1cccc(C(=O)N2CCNCC2)c1 [Example 101, 3-Methyl-N-[3-(piperazin-1-ylcarbonyl)phenyl]-5-(quinoxalin-2-ylamino)-1,2-thiazole-4-carboxamide]	5.12	≤ 4.70
Cc1nsc(Nc2cnc3ccccc3n2)c1C(=O)Nc1cccc(C(=O)N2CCN(C)CC2)c1 [Example 102, 3-Methyl-N-{3-[(4-methylpiperazin-1-yl)carbonyl]phenyl}-5-(quinoxalin-2-ylamino)-1,2-thiazole-4-carboxamide]	4.72	≤ 4.70
Cc1nsc(Nc2cnc3ccccc3n2)c1C(=O)Nc1cccc(C(=O)N[C@@H](CCC(N)=O)C(=O)O)c1 [Example 103, N^2-[3-({[3-Methyl-5-(quinoxalin-2-ylamino)-1,2-thiazol-4-yl]carbonyl}amino)-benzoyl]glutamine]	≤ 4.70	≤ 4.70
Cc1nsc(Nc2cnc3ccccc3n2)c1C(=O)Nc1cccc(C(=O)N[C@H](C(=O)O)[C@@H](C)OC(C)(C)C)c1 [Example 104, O-tert-Butyl-N-[3-({[3-methyl-5-(quinoxalin-2-ylamino)-1,2-thiazol-4-yl]-carbonyl}amino)benzoyl]threonine]	≤ 4.70	≤ 4.70
Cc1nsc(Nc2cnc3ccccc3n2)c1C(=O)Nc1cccc(C(=O)N[C@H](C(=O)O)[C@@H](C)O)c1 [Example 105, N-[3-({[3-methyl-5-(quinoxalin-2-ylamino)-1,2-thiazol-4-yl]carbonyl}amino)-benzoyl]threonine]	4.72	≤ 4.70
Cc1noc(-c2cccc(NC(=O)c3c(C)nsc3Nc3cnc4ccccc4n3)c2)n1 [Example 106, 3-Methyl-N-[3-(3-methyl-1,2,4-oxadiazol-5-yl)phenyl]-5-(quinoxalin-2-ylamino)-1,2-thiazole-4-carboxamide]	≤ 4.70	≤ 4.70
Cc1nsc(Nc2cnc3ccccc3n2)c1C(=O)Nc1cccc(-c2nnc(C(C)(C)C)o2)c1 [Example 107, N-[3-(5-tert-Butyl-1,3,4-oxadiazol-2-yl)phenyl]-3-methyl-5-(quinoxalin-2-ylamino)-1,2-thiazole-4-carboxamide]	≤ 4.70	≤ 4.70
Cc1nsc(Nc2cnc3ccccc3n2)c1C(=O)Nc1cccc(-c2nc(C(C)(C)C)no2)c1 [Example 108, N-[3-(3-tert-Butyl-1,2,4-oxadiazol-5-yl)phenyl]-3-methyl-5-(quinoxalin-2-ylamino)-1,2-thiazole-4-carboxamide]	≤ 4.70	≤ 4.70
Cc1nsc(Nc2cnc(C(F)(F)F)cn2)c1C(=O)Nc1ccc(OCC2CCN(C(=O)OC(C)(C)C)C2)nc1 (stereo not shown) [Example 109, tert-Butyl 3-{[(5-{[(3-methyl-5-{[5-(trifluoromethyl)pyrazin-2-yl]amino}-1,2-thiazol-4-yl)carbonyl]amino}pyridin-2-yl)oxy]methyl}pyrrolidine-1-carboxylate]	≤ 4.70	≤ 4.70
Cc1nsc(Nc2cncc(C(F)(F)F)n2)c1C(=O)Nc1ccc(OCC2CCN(C(=O)OC(C)(C)C)C2)nc1 (stereo not shown) [Example 110, tert-Butyl 3-{[(5-{[(3-methyl-5-{[6-(trifluoromethyl)pyrazin-2-yl]amino}-1,2-thiazol-4-yl)carbonyl]amino}pyridin-2-yl)oxy]methyl}pyrrolidine-1-carboxylate]	≤ 4.70	≤ 4.70
CNS(=O)(=O)c1ccc(NC(=O)c2c(C)nsc2Nc2cnc3ccccc3n2)cc1 [Example 111, 3-Methyl-N-[4-(methylsulfannoyl)phenyl]-5-(quinoxalin-2-ylamino)-1,2-thiazole-4-carboxamide]	≤ 4.70	≤ 4.70
CC(=O)N(C)CCOc1ccc(NC(=O)c2c(C)nsc2Nc2nc3c(C(F)(F)F)cccc3s2)cn1 [Example 112, N-(6-{2-[Acetyl(methyl)amino]-ethoxy}pyridin-3-yl)-3-methyl-5-{[4-(trifluoromethyl)-1,3-benzothiazol-2-yl]amino}-1,2-thiazole-4-carboxamide]	≤ 4.70	≤ 4.70
Cc1nsc(Nc2cnc3ccccc3n2)c1C(=O)Nc1cccc(C(=O)N2CCCC2)c1 [Example 113, 3-Methyl-N-[3-(pyrrolidin-1-ylcarbonyl)phenyl]-5-(quinoxalin-2-ylamino)-1,2-thiazole-4-carboxamide]	4.74	≤ 4.70
Cc1nsc(Nc2cc(C#N)ccn2)c1C(=O)Nc1cccc(C(=O)N2CCCC2)c1 [Example 114, 5-[(4-Cyanopyridin-2-yl)amino]-3-methyl-N-[3-(pyrrolidin-1-ylcarbonyl)phenyl]-1,2-thiazole-4-carboxamide]	≤ 4.70	≤ 4.70
Cc1nsc(Nc2cnc3ccccc3n2)c1C(=O)Nc1ccc(S(C)(=O)=O)cc1 [Example 115, 3-Methyl-N-[4-(methylsulfonyl)phenyl]-5-(quinoxalin-2-ylamino)-1,2-thiazole-4-carboxamide]	5.05	≤ 4.70
